Laboratory results from patent US20160067193A1, “TOPICAL PTEROSTILBENE COMPOSITIONS FOR USE IN TREATING UV-INDUCED SKIN DAMAGE AND HYPERPLASIA” (The Regents of the University of California, priority 2014, published 2016).

Assays:
[1] = In vitro glucuronidation assay with pooled human liver microsomes; format: in vitro ADME; conditions: 100 μg pooled human liver microsomes (n=20), 500 μM compound, HPLC 308 nm
skin of SKH-1 mice [2] = assay: UV-B induced visual skin damage (redness) in SKH-1 mice, topical treatment; format: in vivo; conditions: topical 10 μmol/0.2 ml acetone/mouse 30 min before 180 mJ/cm^2 UV-B, every 2 days, 7 treatments, 5 mice per group
Procedure: FIG. 2 depicts the manner in which pterostilbene prevents UV-B induced damage in the skin of SKH-1 mice. […] Photographs show representative mice after 4th treatment.
(§1) UV-B exposure. Mice were exposed to a single dose of 180 mJ/cm^2 UVB radiation delivered via broadband UVB lamps (TL 40 W/12 RS; Philips) emitting 290-350 nm light with a peak emission at 312 nm. The irradiance was measured using a thermopile sensor (818P-001-12; Newport Inc., Irvine, Calif.) and power meter (842-PE; Newport Inc.).
Hairless SKH-1 mice were used to evaluate the effectiveness of pterostilbene at preventing UV-mediated damage in skin. The SKH-1 model is ideally suited for this purpose and is commonly used in preclinical studies and yielded valuable results. […] To ascertain if pterostilbene could also prevent those molecular alterations, we replicated these experiments. […] For all topical treatments 200 μl total volume was applied to the back skin of the mouse. For acetone group, 200 μl of acetone was applied. […] These mice were treated every 2 days for 7 total treatments. […] 24 hrs after last treatment, mice were euthanized, skin bi-fold measurements taken and back skins collected. As shown in FIGS. 2 and 3A-B, pterostilbene prevented UV-B-induced damage in mouse skin. […] This prevention of visual skin damage by pterostilbene correlated nicely with the prevention of DNA damage. […]

skin of SKH-1 mice [3] = assay: ELISA of UV-B induced DNA damage (CPD, 64 pp) in back skin DNA of SKH-1 mice; format: in vivo; conditions: topical 10 μmol/mouse before 180 mJ/cm^2 UV-B, 14-day experiment
Excerpt: FIGS. 3A and 3B depict the manner in which pterostilbene prevents UV-B induced DNA damage in the skin of SKH-1 mice, namely (A) CPD or (B) 64 pp DNA damage. ELISAs are shown for different arms of mouse study (Abs. 492 nm). * indicates p<0.01 as compared with vehicle (VEH). (RES) is resveratrol and (PTERO) is pterostilbene. NS is not significant.
as §1
ELISAS. DNA was isolated from snap frozen whole back skin using Qiagen QIAamp Blood mini kit (cat #51104) per manufacturer's instructions. ELISAs were performed on purified DNA with anti-CPD (clone TDM2) and anti-64 PP (clone 64M-2) antibodies using manufacturer's protocol and read using a DTX 800 Multimode Detector plate reader (Beckman Coulter) using standard settings from colorimetric detection. Four technical replicates were used and DNA-free wells were used as negative control.
Hairless SKH-1 mice were used to evaluate the effectiveness of pterostilbene at preventing UV-mediated damage in skin. The SKH-1 model is ideally suited for this purpose and is commonly used in preclinical studies and yielded valuable results. […] To ascertain if pterostilbene could also prevent those molecular alterations, we replicated these experiments. […] For all topical treatments 200 μl total volume was applied to the back skin of the mouse. For acetone group, 200 μl of acetone was applied. […] These mice were treated every 2 days for 7 total treatments. […] 24 hrs after last treatment, mice were euthanized, skin bi-fold measurements taken and back skins collected. As shown in FIGS. 2 and 3A-B, pterostilbene prevented UV-B-induced damage in mouse skin. […] This prevention of visual skin damage by pterostilbene correlated nicely with the prevention of DNA damage. […] Therefore pterostilbene prevented the 2 major types of UV-induced DNA damage (CPD and 64 pp) in the skin of SKH-1 mice.
DNA was obtained from the back skin of the SKH-1 mice from the experiment above after completion of the 14-day experiment. This DNA was then examined for DNA damage (both CPD and 64 pp) quantitatively using ELISA as previously described (Nishiwaki, Y., et al., “Trichothiodystrophy fibroblasts are deficient in the repair of ultraviolet-induced cyclobutane pyrimidine dimers and (6-4) photoproducts,” J. Invest. Dermatol. (2004) 122: 526-32). […] Quantification of DNA damage was measured at 492 nm by a spectrophotometer.

skin of SKH-1 mice [4] = assay: UV-B mediated bi-fold skin thickening and hyperplasia (H&E) in SKH-1 mice; format: in vivo; conditions: topical 10 μmol/mouse before 180 mJ/cm^2 UV-B
Procedure: FIG. 3C depicts the manner in which pterostilbene prevents UV-mediated bi-fold skin thickening. Bi-fold skin measurements (mm) were made using a digital caliper. At least three measurements for each mouse were taken along the back.
FIG. 4 depicts the manner in which pterostilbene prevents UV-mediated hyperplasia. H&E stains of back skins from mice in the indicated treatment arms (i.e., UV-B treated and control) were performed.
as §1
Hairless SKH-1 mice were used to evaluate the effectiveness of pterostilbene at preventing UV-mediated damage in skin. The SKH-1 model is ideally suited for this purpose and is commonly used in preclinical studies and yielded valuable results. […] To ascertain if pterostilbene could also prevent those molecular alterations, we replicated these experiments. […] For all topical treatments 200 μl total volume was applied to the back skin of the mouse. For acetone group, 200 μl of acetone was applied. […] These mice were treated every 2 days for 7 total treatments. […]

[5] = cited from earlier work; for bioavailability: in vivo
[6] = rats, relative to resveratrol; cited from earlier work
[7] = 125 mg orally twice a day, human; cited from earlier work
mouse epidermis = conditions: cited from earlier work

## COc1cc(/C=C/c2ccc(O)cc2)cc(OC)c1 [pterostilbene, 3,5-dimethoxy-4′-hydroxy-trans-stilbene]
[1]
  extent of metabolism (glucuronidation) after 2 hours: 20%
Skin of SKH-1 mice [2]
  redness (sunburn) on back skin: no redness was observed on any of the 5 mice
Skin of SKH-1 mice [3]
  64 pp DNA damage by ELISA (Abs. 492 nm): no 64 pps are observed
  CPD DNA damage by ELISA (Abs. 492 nm): no CPDs were detected
Skin of SKH-1 mice [4]; digital caliper on dorsal skin, versus vehicle+UV-B
  UV-mediated bi-fold skin thickening: prevented UV-mediated bi-fold skin thickening
Skin of SKH-1 mice [4]; formalin fixed paraffin embedded back tissue
  UV-mediated hyperplasia (H&E stain of back tissue): prevented UV-mediated hyperplasia at the cellular level
[5]
  half life t1/2 in blood: about 105 minutes
  bioavailability: orally bioavailable
[6]
  increased bioavailability versus resveratrol: 5 fold
[7]
  overall blood pressure: reduction in overall blood pressure was observed
  toxicity in patients: no toxicity reported
Mouse epidermis; 12-O-tetradecanoylphorbol-13-acetate (TPA), mouse epidermis in vivo
  COX-2 activation and TPA-induced tumor formation in mouse epidermis in vivo: prevent COX-2 activation and 12-O-tetradecanoylphorbol-13-acetate (TPA)-induced tumor formation
Mouse epidermis; mouse skin
  potency versus resveratrol in inhibition of NF-KB, AP-1 and iNOS activation in mouse skin: equally or significantly more potent than resveratrol

## Oc1ccc(C=Cc2cc(O)cc(O)c2)cc1 [resveratrol, reference compound]
Skin of SKH-1 mice [2]
  redness (sunburn) on back skin: able to limit the amount of redness observed on the back, it did not prevent it
Skin of SKH-1 mice [3]
  64 pp DNA damage by ELISA (Abs. 492 nm): no 64 pps are observed
  CPD DNA damage by ELISA (Abs. 492 nm): quantitatively detected above background
[5]
  half life t1/2 in blood: about 14 minutes
  bioavailability: poor bioavailability
